Values after ≈ are worked out from the molar mass of the structure shown. Values joined by “and” are separate entries in the source; they are usually repeats but may differ in a detail not shown here. Equal values may be shown once. Where a name gives a salt, the structure may show the parent alone. Read-outs that look alike come from different tables or passages of the source.

A short description of data set [1]: Log P study, octanol-1 / phosphate buffer. Conditions: for P (B/A): octanol-1 (B) / 0.02 M phosphate buffer pH 7.2 (A), Study 1 and Study 2; for log P (octanol/water): octanol-1 / 0.02 M phosphate buffer pH 7.2. As to the method:
To 1 mL of this solution, 1 mL of octanol-1 (B) saturated with 0.02 M phosphate buffer solution (A) was added. The resultant mixture was shaken and centrifuged; three samples from each phase was collected and analyzed by HPLC, as shown in Table 10.
The solution was then saturated with octanol-1 (B). To 1 mL of this solution, 1 mL of octanol-1 (B) saturated with 0.02 M phosphate buffer solution (A) was added. The resultant mixture was shaken and centrifuged; three samples from each phase was collected and analyzed by HPLC, as shown in Table 11.

The nature of data set [2]: Solubility study in water (HPLC calibration).
Data set [3] has as its system cytosolic extracts of HepG2 cells. Put plainly: Steady state phosphorylation kinetics in cytosolic extracts. It counts as biochemical, human. The conditions noted are these: cytosolic extracts of HepG2 cells as enzyme source.
Data set [4] is classed as physicochemical. The conditions noted are these: octanol-1 (B) / MilliQ water pH 6.5 (A′), Study 1 and Study 2, listed as L-dC-5′-valinyl ester hydrochloride. The procedure: (§1) To 1 mL of this solution, 1 mL of octanol-1 (B) saturated with MilliQ water (A′) was added.
as §1

Data set [5] can be described thus: Stability study in buffer at pH 7.4, 7.20, 4.5 and 1.2. The format is physicochemical. The conditions noted are these: pH 1.2, no decomposition products detected for up to 23 hours.
Data set [6] relates to L515M/M552I mutant HBV, cell line MI4. In words: Antiviral testing in stable HepG2 cell lines, EPA of intracellular nucleocapsids. The format is cell-based, hepatitis B virus. The procedure:
(§2) Recombinant DNA constructs corresponding to these lamivudine-resistant mutants were created by site directed mutagenesis. The test system comprised stable cell lines harboring each of the transfected mutant genomes, as well as a wild-type control HBV genome. The antiviral activity of LdT (telbivudine) and LdC, together with the control drugs lamivudine and PMEA, was determined against the mutant and wild-type HBV genomes in the respective test cell lines.
(§3) Endogenous Polymerase Assay (EPA) of cell lysate: Cells were grown in 12-well collagen plates to 100% confluency for 3-4 days and cytosolic lysates were prepared in 1 ml of 50 mM Tris-HCl pH 7.4, 150 mM NaCl, 5 mM MgCl2, 0.2% NP-40. EPAs were essentially performed as described (Seifer et al., 1998). […] The immobilized capsids were then washed, endogenous polymerase reactions were initiated in 50 ul reaction volume containing 50 mM Tris-HCl pH7.4, 75 mM NH4Cl, 1 mM EDTA, 20 mM MgCl2, 0.1 mM β-ME, 0.5% NP-40, 100 μM cold dGTP, TTP, dCTP, and 50 nM ^33P-dATP (Perkin Elmer Life Sciences Cat# NEG 612H), and incubated overnight at 37° C. Following digestion with 1 mg/ml of Proteinase K (Roche, Cat#1373196) for 1 h at 37° C., ^33P-labeled HBV DNA was liberated via phenol/chloroform extraction The nucleic acids were finally precipitated with equal volumes 5M NH4-acetate and 2.5 volumes 100% EtOH and separated on a 1% native agarose gel in Tris-borate buffer. Gels were either fixed with 7% TCA, then dried, or blotted onto positively charged nylon membrane (Pall Biodyne Plus Cat#60406) overnight at room temperature via capillary transfer in 0.4 N NaOH. Dried gels/membranes were exposed to a phosphoimager screen (Molecular Dynamics) overnight at room temperature, then scanned (Storm 860, Molecular Dynamics) and quantitated with ImageQuant (Molecular Dynamics) software.
(§4) 12-well Biocoat collagen I plates (Becton Dickinson Cat#35-4500) are seeded with cells at a density of 0.5-1×10^6 cells per well in 2 ml DMEM containing 5% FBS, 2 mM L-glutamine, 100 I.U. penicillin/100 μg/mL streptomycin, and 0.5 mg/mL G-418.
(§5) Drug dilutions are prepared freshly in 100% DMSO as 200× stocks. For each experiment, 4 aliquots of each drug dilution series are stored at −20° C. until used. Once cells reach confluency, drug treatment is initiated by adding 10 μL of drug dilution into 2 ml of fresh DMEM+5% FBS. […] The no-drug control well receives only 10 μl of DMSO. Cells are treated every other day with 2 mL of fresh drug/medium for a total of 8 days. Cell lysates are then collected on day 10 as described below:
(§6) Aspirate media and rinse cell monolayer carefully once with 1 mL of PBS.
(§7) Add 1 ml of lysis buffer (50 mM Tris-HCl pH 7.5/150 mM NaCl/5 mM MgCl2/0.2% NP-40). Store on ice for 30 min to 4 h.
(§8) Harvest lysed cells. Transfer to 1.5 ml microfuge tubes.
(§9) Clarify lysate by spinning for 5 min at RT and 14,000 rpm.
(§10) Transfer clarified lysate to fresh tubes. Snap-freeze on dry-ice and store at −80° C. until ready to continue with endogenous polymerase assays essentially as described above.
(§11) EC50's were generated from the phosphorimager data by curve fitting using Xlfit software.

Data set [7] deals with L515M/M552V mutant HBV, cell line MV5/B3. The data set is described as above. It counts as cell-based, hepatitis B virus. The procedure:
as §2, §3, §4, §5, §6, §7, §8, §9, §10, §11

Data set [8] deals with M552I mutant HBV, cell line I2. The data set is described as above. The format is cell-based, hepatitis B virus. The procedure: as §2, §3, §4, §5, §6, §7, §8, §9, §10, §11
For data set [9], the system named is M552V mutant HBV, cell line V1/C9. The description is as above. The format is cell-based, hepatitis B virus. The conditions noted are these: for EC50: cell line V1/C9, mean ± SD of three to four experiments. The procedure: as §2, §3, §4, §5, §6, §7, §8, §9, §10, §11
Data set [10] has as its system wild-type HBV (ayw), cell line WT3/C1. The description is as above. It counts as cell-based, hepatitis B virus. Conditions: WT (ayw); for EC50: cell line WT3/C1, mean ± SD of three to four experiments. As to the method:
as §2, §3, §4, §5, §6, §7, §8, §9, §10, §11

The next data set deals with hepatitis B virus. The conditions noted are these: clinical studies; cited from earlier work.
Data set [11] addresses hepatitis B virus deoxyribonucleic acid (DNA) polymerase (Hepatitis B virus genotype D subtype ayw, UniProt P03156). Put plainly: biochemical.
The mark [12] stands for this setting: listed as 3′-valinyl ester hydrochloride of β-L-dC.
Where [13] appears, read: Hepatitis B virus, HepG2, L515M/M552I, cell line MI4, mean ± SD of three to four experiments, read-out: EC50.
Setting [14] is: Hepatitis B virus, HepG2, L515M/M552V, cell line MV5/B3, mean ± SD of three to four experiments, read-out: EC50.
[15] abbreviates: Hepatitis B virus, HepG2, M552I, cell line I2, mean ± SD of three to four experiments, read-out: EC50.
[16] abbreviates: Hepatitis B virus, HepG2, M552V.

hepatitis B virus deoxyribonucleic acid (DNA) polymerase, sequence (P03156 whole entry): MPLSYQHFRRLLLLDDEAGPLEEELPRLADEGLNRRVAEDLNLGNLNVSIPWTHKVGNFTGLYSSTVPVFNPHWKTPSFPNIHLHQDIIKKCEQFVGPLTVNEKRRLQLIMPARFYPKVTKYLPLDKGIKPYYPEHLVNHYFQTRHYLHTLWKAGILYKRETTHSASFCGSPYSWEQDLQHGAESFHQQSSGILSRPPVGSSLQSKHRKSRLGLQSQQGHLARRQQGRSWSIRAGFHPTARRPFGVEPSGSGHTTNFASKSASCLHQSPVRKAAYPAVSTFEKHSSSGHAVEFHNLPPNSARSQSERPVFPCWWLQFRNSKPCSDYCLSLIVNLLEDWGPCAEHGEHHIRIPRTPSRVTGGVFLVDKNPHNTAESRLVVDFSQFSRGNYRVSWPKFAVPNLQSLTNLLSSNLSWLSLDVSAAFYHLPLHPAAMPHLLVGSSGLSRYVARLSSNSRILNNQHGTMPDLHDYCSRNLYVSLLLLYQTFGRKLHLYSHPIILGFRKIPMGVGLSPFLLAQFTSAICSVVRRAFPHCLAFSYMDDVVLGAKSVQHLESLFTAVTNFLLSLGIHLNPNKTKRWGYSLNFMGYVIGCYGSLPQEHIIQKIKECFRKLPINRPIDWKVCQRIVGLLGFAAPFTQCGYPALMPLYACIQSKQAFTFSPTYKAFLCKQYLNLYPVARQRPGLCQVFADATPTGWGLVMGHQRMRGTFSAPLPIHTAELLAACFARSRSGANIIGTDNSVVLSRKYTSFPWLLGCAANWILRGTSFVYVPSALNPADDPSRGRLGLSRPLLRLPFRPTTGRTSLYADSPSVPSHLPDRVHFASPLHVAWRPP

Consider `CC(C)[C@H](N)C(=O)O[C@@H]1C[C@@H](n2ccc(N)nc2=O)O[C@H]1CO.Cl` [3′-val-L-dC, 3′-valinyl ester hydrochloride of β-L-dC], for which, in [1] (listed as L-dC-3′-valine ester hydrochloride), the “P (B/A)” value was 0.0296 and 0.0293. The “log P (octanol/water)” value in data set [1] was −1.53. Moreover, the “Solubility (g/L)” value in [2] and in data set [2] (setting [12]) was over 408 g/L each time. The “Solubility (mol/L)” value in data set [2] (setting [12]) is on record as “greater than 1.023 mol/L”.

Turning to `Nc1ccn([C@H]2C[C@H](O)[C@@H](CO)O2)c(=O)n1` [D-dC, D-Deoxycytidine], in data set [1], the “P (B/A)” value was determined as 0.039 and the “log P (octanol/water)” value was −1.41. Also, the “maximum initial velocity (Vmax) of phosphorylation” value in data set [3] is 2.15 nmol/min/mg protein. For the same compound, in data set [2], the “Solubility (g/L)” value was 272 g/L (≈ 1200 mM) and the “Solubility (mol/L)” value was 1.03 mol/L (≈ 234 mg/mL). Also, the “Concentration (mol/L) of single samples” value in data set [2] (1st-3rd HPLC sample of the saturated (D-dC) or most concentrated available solution) was 1.07 mol/L and 1.08 mol/L and 0.96 mol/L.

For the compound `CC(C)[C@H](N)C(=O)OC[C@@H]1O[C@H](n2ccc(N)nc2=O)C[C@H]1O` [5′-val-L-dC, 5′-L-valine ester of 2′-deoxy-β-L-cytidine hydrochloride], the “P′ (B/A′)” value in data set [4] is 1.54 × 10^−3 and 2.04 × 10^−3. Besides, the stability in words entry in data set [5] was “fully stable”.

On to `Cc1cn([C@H]2C[C@H](O)[C@@H](CO)O2)c(=O)[nH]c1=O` [Thd, D-thymidine], for which, in data set [3], the “maximum initial velocity (Vmax) of phosphorylation” value turned out to be 1.26 nmol/min/mg protein.

A word on the EC50: it is the midpoint of the concentration-response curve. `Nc1ccn([C@@H]2C[C@@H](O)[C@H](CO)O2)c(=O)n1` [LdC-HCl]: the EC50 in data set [6] (L515M/M552I, cell line MI4, mean ± SD of three to four experiments, read-out: EC50) is at least 1000 µM; in [7] (L515M/M552V, cell line MV5/B3, mean ± SD of three to four experiments, read-out: EC50), 777 ± 99 µM; in data set [8] (M552I, cell line I2, mean ± SD of three to four experiments, read-out: EC50), at least 1000 µM; in [9] (M552V) it was 0.36 ± 0.13 µM; in data set [10], 0.18 ± 0.09 µM.

Regarding `CC(=O)OC[C@@H]1O[C@H](n2ccc(N)nc2=O)C[C@H]1OC(C)=O` [3′5′-diacetyl-L-dC, 3′,5′-Di-O-acetyl-2′-deoxy-β-L-cytidine], the “log P (octanol/water)” value in data set [1] is given as −0.74.

Consider `Nc1ncnc2c1ncn2CCOCP(=O)(O)O` [PMEA, 9-{2-(phosphonomethoxy)ethyl}adenine, reference compound], for which the EC50 in data set [6] (setting [13]) came to 1.49 ± 0.3 µM; in data set [7] (setting [14]) it was 0.62 ± 0.3 µM; in [8] (setting [15]) it was 1.6 ± 1.12 µM; in data set [9] (setting [16]), 1.02 ± 0.22 µM; in data set [10] (Hepatitis B virus, HepG2), 0.33 ± 0.17 µM. Besides, the “activity against the mutant, in words” value in data set [6] (L515M/M552I double mutant), in [7] (L515M/M552V double mutant), in data set [8] (M552I single mutant) and in data set [9] (M552V single mutant) was “retained significant activity” each time. The “X Resist. (fold resistance)” value came out at 3.6 ± 1.1 in data set [6] (L515M/M552I, EC50 mutant divided by EC50 wild-type); 3.3 ± 2.9 in data set [7] (L515M/M552V, EC50 mutant divided by EC50 wild-type); 4.6 ± 3.0 in data set [8] (M552I, EC50 mutant divided by EC50 wild-type); 3.8 ± 2.3 in [9] (M552V, EC50 mutant divided by EC50 wild-type); 1 in data set [10] (EC50 mutant divided by EC50 wild-type).

As for Interferon alpha-2b, the “patients with no evidence of the hepatitis B virus in their blood over time” value in the data set with hepatitis B virus is given as 45%.

As to `Nc1ccn([C@@H]2CS[C@H](CO)O2)c(=O)n1` [lamivudine, (−)-enantiomer of BCH-189 (2′,3′-dideoxy-3′-thiacytidine), reference compound], the EC50 in [6] (Hepatitis B virus, HepG2, L515M/M552I double mutant) was over 1000 µM; in data set [6] (setting [13]), at least 1000 µM; in [7] (Hepatitis B virus, HepG2, L515M/M552V double mutant), over 1000 µM; in [7] (setting [14]), at least 1000 µM; in data set [8] (Hepatitis B virus, HepG2, M552I single mutant), over 1000 µM; in [8] (setting [15]), at least 1000 µM. Besides, the concentration for a half-maximal effect (EC50) in [9] (setting [16]) amounted to 0.96 ± 0.36 µM; in data set [10] (Hepatitis B virus, HepG2), 0.05 ± 0.03 µM.

In general, IC50 refers to the point on the concentration scale where inhibition reaches its midpoint. Consider `O=c1ccn([C@@H]2C[C@@H](O)[C@H](COP(=O)(O)OP(=O)(O)OP(=O)(O)O)O2)c(=O)[nH]1` [L-dU-TP, β-L-2′-deoxyuridine 5′-triphosphate], for which the IC50 in [11] was 5.26 µM.

(Values after US8158606B2, “β-L-2′-deoxynucleosides for the treatment of resistant HBV strains and combination therapies” (priority 2002, dated 2012).)
